For the test, the system named is closed head injury (CHI). The test is described as follows: Closed head injury (CHI) model, neurological severity score, Sabra mice. In kind it is in vivo. The following applies: SR144528 1 mg/kg i.p. 1 h after CHI, 24 h to 14 day, vs vehicle control. As to the method:
The study was conducted according to the guidelines of the Institutional Animal Care Committee of the Hebrew University. Male Sabra mice weighing 35 to 50 g were used in all experiments. Animals were kept under controlled light conditions with a 12 h/12 h light/dark cycle. Experimental closed head injury (CHI) was induced using a modified weight drop device developed in our laboratory as described previously (Chen et al., 1996). At 1 h after CHI, the functional status of the mice was evaluated according to a set of 10 neurobehavioral tasks, namely the neurological severity score (NSS). This score is based on the ability of the mice to perform 10 different tasks (Beni-Adani et al., 2001) that evaluate their motor ability, balance, and alertness. One point is given for failing to perform a task. […] A score of 10 reflects maximal neurologic impairment, and a decrease of NSS during the recovery period indicates partial recovery of function.
Data was analyzed using the Prism 4.02 programme (GraphPad Software, San Deigo, Calif., USA). The data are expressed as mean±SEM and statistical significance was assessed with one way analysis of variance (ANOVA) followed by a Dunnett's post-hoc analysis for TNF-α levels. Nonparametric NSS values were compared between the two groups at each time point.
In this study four groups of mice were subjected to CHI (n=10/group and control n=9), after which the following agents were administered: • Group 1 (Control): Vehicle only (ethanol:cremophor:saline at ratio of 1:1:18), 1 h after CHI. • Group 2: HU-910, 0.1 mg/kg, dissolved in vehicle (1:1:18 ethanol:cremophor:saline), i.p. 1 h after CHI. • Group 3: HU-910, 1.0 mg/kg, dissolved in vehicle (1:1:18 ethanol:cremophor:saline), i.p. 1 h after CHI. • Group 4: HU-910, 10.0 mg/kg, dissolved in vehicle (1:1:18 ethanol:cremophor:saline), i.p. 1 h after CHI.
In this study four groups of mice were subjected to CHI (n=9/group), after which the following agents were administered: • Group 1 (Control): Vehicle only (ethanol:cremophor:saline at ratio of 1:1:18), 1 h after CHI. • Group 2: HU-910, 10 mg/kg, dissolved in vehicle (1:1:18 ethanol:cremophor:saline), i.p. 1 h after CHI. • Group 3: Specific CB2 antagonist SR144528 (N-[(1S)-endo-1,3,3-trimethylbicyclo[2.2.1]heptan-2-yl]-5-(4-chloro-3-methylphenyl)-1-(4-methylbenzyl)pyrazole-3 carboxamide), (see M. Rinaldi-Carmona, et al. J. Pharmacol. Exp. Ther. 284 (1998) 644-650), 1 mg/kg, i.p. 1 h after CHI. • Group 4: Specific CB2 antagonist (SR144528, N-[(1S)-endo-1,3,3-trimethylbicyclo[2.2.1]heptan-2-yl]-5-(4-chloro-3-methylphenyl)-1-(4-methylbenzy)pyrazole-3 carboxamide), 1 mg/kg, i.p. 1 h after CHI and HU-910 10 mg/kg administered 10 min after administration of antagonist.
In this study four groups of mice were subjected to CHI (n=7-8/group), after which the following agents were administered: • Group 1 (Control): Vehicle only (Dimethyl Sulfoxide (DMSO): Tween 80: Saline at ratio of 1:1:18), i.p. 1 h after CHI. • Group 2: HU-910, 10 mg/kg, dissolved in Vehicle, i.p. 1 h after CHI. • Group 3: Specific CB2 antagonist/inverse agonist AM630 (6-Iodo-2-methyl-1-[2-(4-morpholinyl)ethyl]-1H-indol-3-yl](4-methoxyphenyl)methanone) (Ross et al. 1999)), dissolved in Vehicle, 1 mg/kg, i.p. 1 h after CHI and HU-910, dissolved in Vehicle, 10 mg/kg administered 10 min after administration of antagonist/inverse agonist. • Group 4: Specific CB2 antagonist/inverse agonist AM630 (6-Iodo-2-methyl-1-[2-(4-morpholinyl)ethyl]-1H-indol-3-yl](4-methoxyphenyl)methanone), dissolved in Vehicle, 1 mg/kg, i.p. 1 h after CHI

As to “N-[(1S)-endo-1,3,3-trimethylbicyclo[2.2.1]heptan-2-yl]-5-(4-chloro-3-methylphenyl)-1-(4-methylbenzyl)pyrazole-3 carboxamide [SR144528, reference compound]”, the “extent of recovery ΔNSS, antagonist alone” value is on record as “recovery was significantly reduced”.

Source of the values: US9365534B2, “Arylated camphenes, processes for their preparation and uses thereof” (Yissum Research Development Company of the Hebrew …, priority 2009, dated 2016).
